# Results from patent US6696417B1, “Skin and hair darkening composition” (Chesebrough-Pond's USA Co., division of Conopco, Inc., priority 1997, dated 2004).
# Assays:
# [1] = tested on: tyrosinase; experiment: In vitro enhancement of melanin formation (Example 3); assay type: biochemical; details: 18 nmoles polyamino acid; DL-DOPA, 20 nmoles lysozyme, 0.45 mg tyrosinase, acetate buffer pH 5.0; absorbance at 400 nm; control 0.120
# Method: (§1) The assay conditions for the formation of melanin under in vitro conditions are as follows.
# The control assay mixture contained 5 mmoles of DL-DOPA (Dihydroxy phenyl alanine), lysozyme 20 nmoles and 0.45 mg of tyrosinase in acetate buffer pH 5.0 in a test tube. In the experimental set 18 nmoles of the polyglutamate, a polyamino acid sequence with pI 2.5 or polyarginine pI 10.9 or polylysine pI 11.0 was used in addition to the other ingredients as defined in the control. The melanin formed was washed with the buffer, suspended in 1 N sodium hydroxide and dissolved by heating the sample at 60° C. for 5 minutes. The absorbance was measured at 400 nm.
# [2] = tested on: tyrosinase; experiment: In vitro enhancement of melanin formation (Example 1); assay type: biochemical
# Text: as §1
# The control assay mixture contained 5 pmoles of DL-DOPA (Dihydroxy phenyl alanine), 20nmoles lysozyme and 3.2 units of tyrosinase in acetate buffer pH 5.0 in a test tube. A unit is defined as the amount of tyrosinase needed to convert 1 nmol DOPA in one minute. In the experimental set 11 nmoles of polylysine, a polyamino acid sequence with pI 11.0, was used in addition to the other ingredients as defined in the control. The melanin formed was washed with the acetate buffer, suspended in 1N sodium hydroxide and dissolved by heating the sample at 60° C. for 5 minutes. The absorbance was measured at 400 nm.
Melanin formed A 400 [1],Substance,"Melanin formed A 400 ([2]; 11 nmoles polyamino acid, DL-DOPA, 20 nmoles lysozyme, 3.2 units tyrosinase, acetate buffer pH 5.0, absorbance at 400 nm, control 0.120)","melanin production (in words) ([2]; in presence of polylysine versus control, pH 5)"
0.182,polyarginine,,
0.048,polyglutamate [reference compound],,

Substance,Melanin formed A 400 [1],"Melanin formed A 400 ([2]; 11 nmoles polyamino acid, DL-DOPA, 20 nmoles lysozyme, 3.2 units tyrosinase, acetate buffer pH 5.0, absorbance at 400 nm, control 0.120)","melanin production (in words) ([2]; in presence of polylysine versus control, pH 5)"
polylysine,0.168,0.168,significantly enhanced
